Results from patent publication US20180118786A1, “NOVEL lNHIBITORS OF THE ENZYME ACTIVATED FACTOR XII (FXIIA)” (ECOLE POLYTECHNIQUE FEDERALE DE LAUSANNE (EPFL), priority 2015, published 2018).
Starred links: 1 amine or outer side, 2 acyl side, 3 side chain; linkers in the order of their positions; H or OH if unused. Positions of bridges follow the written chain, without caps; N, C: chain ends. Non-standard residues stand in square brackets, D forms with d. Residues, ends and D or L forms follow the SMILES beside them. TATA = O=C(CC[*:1])N1CN(C(=O)CC[*:2])CN(C(=O)CC[*:3])C1; Phe(4-F) = N[C@@H](Cc1ccc(F)cc1)C(=O)O; β3hR = N=C(N)NCCC[C@H](N)CC(=O)O

Assays:
human β-FXIIa [1] = biological target: T1, human β-FXIIa (Homo sapiens, UniProt P00748); assay: Protease inhibition assay (Example 2); assay type: biochemical; conditions: for improvement of inhibitory activity / affinity: relative to parent peptide 2
T1 construct: human β-FXIIa, a naturally occurring proteolytic product of FXIIa comprising only the catalytic domain; purchased Molecular Innovations HFXIIAB
Description: The inhibitory activity of bicyclic peptides was determined by incubation with proteases and quantification of their residual activity with a fluorogenic substrate. Residual enzymatic activities were measured in buffer containing 10 mM Tris-CI, pH 7.4, 150 mM NaCl, 10 mM MgCl2, 1 mM CaCl2, 0.1% w/v BSA, 0.01% v/v Triton-X100, and 5% v/v DMSO in a volume of 150 μL. In a first series of experiments 50 μM of the fluorogenic substrate Z-Gly-Gly-Arg-AMC and 2.5 nM of enzyme (human p-FXIIa, HFXIIAB; Molecular Innovations) was used.
Dilutions of peptides were prepared ranging from 0.00001-4 μM. Fluorescence intensity was measured with an Infinite M200Pro fluorescence plate reader (excitation at 368 nm, emission at 467 nm; Tecan, Männedorf, Switzerland). The reactions were performed at 25° C., Sigmoidal curves were fitted to the data using the following dose response equation wherein x=peptide concentration, y=% activity of reaction without peptide, A1=100%, A2=0%, p=1. IC50 values were derived from the fitted curve.

human β-FXIIa [2] = biological target: T1, human β-FXIIa; assay: Protease inhibition assay (Example 3); assay type: biochemical; conditions: for improvement of Ki / binding: relative to FXII618 (1)
Description: The inhibitory activity of the synthesized bicyclic peptides was determined by incubation with the protease and quantification of the residual activity at various peptide concentrations using a fluorogenic substrate. A 2 mM (by weight) stock solution in H2O was made for each peptide. For the assay, serial dilutions were made from the peptide stock solution using aqueous buffer containing 10 mM TRIS, 150 mM NaCl, 10 mM MgCl (hexahydrate), 1 mM CaCl2 (dihydrate), 0.01% (v/v) Triton X-100, 0.1% (w/v) BSA and pH adjusted to 7.4. The final concentration of human 3-FXIIa (HFXIIAB; Molecular Innovations) was 1 nM or 0.5 nM. […] The final concentration of the fluorogenic substrate Boc-Q-G-R-AMC (Bachem) was 50 μM and the final DMSO content was 5%. The fluorescence was measured using an Infinite M200 Pro plate reader (Tecan) with filters 368 nm for excitation and 467 nm for emission. The measurement was performed for 60 min with a read every minute at 25° C. IC50 and Ki values were calculated using GraphPad Prism 5 software.

in vitro = conditions: human, plasma
Description: Peptide (2 μl of 2 mM in H2O) was added to 398 μl human plasma (final peptide concentration was 10 μM in 400 μl final volume). The mixture was incubated in the water bath at 37° C. At 8 different time points (0 h, 30 min, 1 h, 2 h, 4 h, 8 h, 12 h, 24 h and in some cases 48 h) a sample of 30 μl was removed, diluted to 200 μl with the same buffer used for protease inhibition assay (see above) and heat-inactivated for 20 min at 65° C. During this step proteases present in plasma are being inactivated, that would otherwise interfere with the subsequently performed enzymatic assay. […] Before analysis, plasma samples were centrifuged for 5 min at 16′000 g and the supernatant was collected. A twofold dilution series ranging from 0.0005-0.5 μM was prepared. IC50 values were derived from the fitted curve using the equation indicated above. Residual inhibition in % was calculated using the following formula: IC50, 0h/IC50, xh*100 wherein IC50, 0h is the functional strength of the inhibitor at time point 0 and IC50, xh the functional strength of inhibitor after one of the different plasma incubation period mentioned above.
The activity of the plasma proteases was heat-inactivated by incubation of the samples at 65° C. for 10 minutes.

T1 sequence (P00748 373-615 limits assumed, other chains not shown): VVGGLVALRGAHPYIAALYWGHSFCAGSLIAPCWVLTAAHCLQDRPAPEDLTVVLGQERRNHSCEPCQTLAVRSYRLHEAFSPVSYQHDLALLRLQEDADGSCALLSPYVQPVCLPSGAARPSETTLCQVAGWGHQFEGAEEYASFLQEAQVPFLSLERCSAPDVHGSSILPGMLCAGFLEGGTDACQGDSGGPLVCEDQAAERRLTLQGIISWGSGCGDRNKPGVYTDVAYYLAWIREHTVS

Q: Which “improvement of inhibitory activity / affinity” value (human β-FXIIa [1]) does the source give for `CC(C)C[C@@H]1NC(=O)[C@H](CCC(N)=O)NC(=O)[C@H](CCCNC(=N)N)NC(=O)[C@@H]2CSCCC(=O)N3CN(CN(C3)C(=O)CCSC[C@H](NC(=O)[C@@H](N)CCCNC(=N)N)C(=O)N[C@@H](Cc3cccnc3)C(=O)N[C@@H](CCCNC(=N)N)C(=O)N[C@@H](CC(C)C)C(=O)N3CCC[C@H]3C(=O)N2)C(=O)CCSC[C@@H](C(=O)N[C@@H](CCCNC(=N)N)C(=O)N[C@@H](Cc2c[nH]c3ccccc23)C(N)=O)NC(=O)[C@H](CCCNC(=N)N)NC1=O` [peptide 54] here?
A: around 3 fold

Q: For `CC(C)C[C@@H]1NC(=O)[C@H](CCC(N)=O)NC(=O)[C@H](CCCNC(=N)N)NC(=O)[C@@H]2CSCCC(=O)N3CN(CN(C3)C(=O)CCSC[C@H](N)C(=O)N[C@@H](Cc3ccccc3)C(=O)N[C@@H](CCCNC(=N)N)C(=O)N[C@@H](CC(C)C)C(=O)N3CCC[C@H]3C(=O)N2)C(=O)CCSC[C@@H](C(=O)N[C@@H](CCCNC(=N)N)C(N)=O)NC(=O)[C@H](CCCNC(=N)N)NC1=O` [peptide 62] (H-CFRLPCRQLRCR-NH2; linker 1-6-11 via TATA), which Ki (human β-FXIIa [1]) is on record?
A: 0.932 ± 0.08 µM

Q: With `CC(C)C[C@@H]1NC(=O)[C@H](CCC(N)=O)NC(=O)[C@H](CCCNC(=N)N)NC(=O)[C@@H]2CSCCC(=O)N3CN(CN(C3)C(=O)CCSC[C@H](NC(=O)[C@@H](N)CCCNC(=N)N)C(=O)N[C@@H](Cc3ccccc3)C(=O)N[C@@H](CCCNC(=N)N)C(=O)N[C@@H](CC(C)C)C(=O)N3CCC[C@H]3C(=O)N2)C(=O)CCSCC[C@@H](C(=O)N[C@@H](CCCNC(=N)N)C(N)=O)NC(=O)[C@H](CCCNC(=N)N)NC1=O` [peptide 105] as the compound, how does the “improvement of Ki / binding” value (human β-FXIIa [2]) read?
A: 1.3 fold

Q: For `CC(C)C[C@@H]1NC(=O)[C@H](CCC(N)=O)NC(=O)[C@H](CCCNC(=N)N)NC(=O)[C@@H]2CSCCC(=O)N3CN(CN(C3)C(=O)CCSC[C@H](NC(=O)[C@@H](N)CCCNC(=N)N)C(=O)N[C@@H](Cc3ccccc3)C(=O)N[C@@H](CCCCN)C(=O)N[C@@H](CC(C)C)C(=O)N3CCC[C@H]3C(=O)N2)C(=O)CCSC[C@@H](C(=O)N[C@@H](CCCNC(=N)N)C(=O)N[C@@H](Cc2c[nH]c3ccccc23)C(N)=O)NC(=O)[C@H](CCCNC(=N)N)NC1=O` [peptide 10] (H-RCFKLPCRQLRCRW-NH2; linker 2-7-12 via TATA), which “reduction of inhibitory activity / affinity” value (human β-FXIIa [1]; relative to parent peptide (peptide 2 or peptide 1)) is on record?
A: 10 fold

Q: Which Ki (human β-FXIIa [1]) does the source give for `CC(C)C[C@@H]1NC(=O)[C@H](CCC(N)=O)NC(=O)[C@H](CCCNC(=N)N)NC(=O)[C@@H]2CSCCC(=O)N3CN(CN(C3)C(=O)CCSC[C@H](NC(=O)[C@@H](N)CCNC(=N)N)C(=O)N[C@@H](Cc3ccccc3)C(=O)N[C@@H](CCCNC(=N)N)C(=O)N[C@@H](CC(C)C)C(=O)N3CCC[C@H]3C(=O)N2)C(=O)CCSC[C@@H](C(=O)N[C@@H](CCCNC(=N)N)C(N)=O)NC(=O)[C@H](CCCNC(=N)N)NC1=O` [peptide 71] here?
A: 0.0185 to 0.0431 µM

Q: And the half-life at 10 μM (in vitro)?
A: 21.7 ± 2.5 h

Q: Which half-life at 10 μM (in vitro) does the source give for `CC(C)C[C@@H]1NC(=O)[C@H](CCC(N)=O)NC(=O)[C@H](Cc2c[nH]cn2)NC(=O)[C@@H]2CSCCC(=O)N3CN(CN(C3)C(=O)CCSC[C@H](NC(=O)[C@@H](CO)NC(=O)[C@H](N)CCCNC(=N)N)C(=O)N[C@@H](Cc3ccc(F)cc3)C(=O)N[C@@H](CCCNC(=N)N)C(=O)N[C@@H](CC(C)C)C(=O)N3CCC[C@H]3C(=O)N2)C(=O)CCSC[C@@H](C(=O)N[C@@H](CCCNC(=N)N)C(N)=O)NC(=O)[C@H](CCCNC(=N)N)NC1=O` [JS34] (H-[dR][dS]C[Phe(4-F)]RLPCHQLRCR-NH2; linker 3-8-13 via TATA; N-terminus and C-terminus assumed) here?
A: 38.7 h

Q: For `CC(C)C[C@@H]1NC(=O)[C@H](CCC(N)=O)NC(=O)[C@H](CCCNC(=N)N)NC(=O)[C@@H]2CSCCC(=O)N3CN(CN(C3)C(=O)CCSC[C@H](NC(=O)[C@@H](N)CCCNC(=N)N)C(=O)N[C@@H](Cc3ccccc3)C(=O)N[C@@H](CCCNC(=N)N)C(=O)N[C@@H](CC(C)C)C(=O)N3CCC[C@H]3C(=O)N2)C(=O)CCSC[C@@H](C(=O)N[C@@H](CCCNC(=N)N)C(N)=O)NC(=O)C[C@H](CCCNC(=N)N)NC1=O` [compound 100], which Ki (human β-FXIIa [2]) is on record?
A: 0.0054 ± 0.0001 µM

Q: What about the “improvement of Ki / binding” value (human β-FXIIa [2]) of the same compound?
A: 4 fold

Q: Which “improvement of inhibitory activity / affinity” value (human β-FXIIa [1]) does the source give for `CC(C)C[C@@H]1NC(=O)[C@H](CCC(N)=O)NC(=O)[C@H](CCCNC(=N)N)NC(=O)[C@@H]2CSCCC(=O)N3CN(CN(C3)C(=O)CCSC[C@H](NC(=O)[C@@H](N)CCCNC(=N)N)C(=O)N[C@@H](Cc3ccccc3F)C(=O)N[C@@H](CCCNC(=N)N)C(=O)N[C@@H](CC(C)C)C(=O)N3CCC[C@H]3C(=O)N2)C(=O)CCSC[C@@H](C(=O)N[C@@H](CCCNC(=N)N)C(=O)N[C@@H](Cc2c[nH]c3ccccc23)C(N)=O)NC(=O)[C@H](CCCNC(=N)N)NC1=O` [peptide 56] here?
A: 2 fold

Q: With `CC(C)C[C@@H]1NC(=O)[C@H](CCC(N)=O)NC(=O)[C@H](CCCNC(=N)N)NC(=O)[C@@H]2CSCCC(=O)N3CN(CN(C3)C(=O)CCSC[C@H](NC(=O)[C@@H](N)CCCNC(=N)N)C(=O)N[C@@H](Cc3ccccc3)C(=O)N[C@@H](CCCNC(=N)N)C(=O)N[C@@H](CC(C)C)C(=O)N3CCC[C@H]3C(=O)N2)C(=O)CCSCC[C@@H](C(=O)N[C@@H](CCCNC(=N)N)C(N)=O)NC(=O)C[C@H](CCCNC(=N)N)NC1=O` [compound 107] as the compound, how does the Ki (human β-FXIIa [2]) read?
A: 0.018 ± 0.002 µM

Q: Which half-life at 10 μM (in vitro) does the source give for `CC(C)C[C@@H]1NC(=O)[C@H](CCC(N)=O)NC(=O)[C@H](CCCNC(=N)N)NC(=O)[C@@H]2CSCCC(=O)N3CN(CN(C3)C(=O)CCSC[C@H](NC(=O)[C@@H](CO)NC(=O)[C@H](N)CCCNC(=N)N)C(=O)N[C@@H](Cc3ccc(F)cc3)C(=O)N[C@@H](CCCNC(=N)N)C(=O)N[C@@H](CC(C)C)C(=O)N3CCC[C@H]3C(=O)N2)C(=O)CCSC[C@@H](C(=O)N[C@@H](CCCNC(=N)N)C(N)=O)NC(=O)C[C@H](CCCNC(=N)N)NC1=O` [JS35] (H-[dR][dS]C[Phe(4-F)]RLPCRQL[β3hR]CR-NH2; linker 3-8-13 via TATA; N-terminus and C-terminus assumed) here?
A: 21.9 h

Q: With `CC(C)C[C@@H]1NC(=O)[C@H](CCC(N)=O)NC(=O)[C@H](Cc2c[nH]cn2)NC(=O)[C@@H]2CSCCC(=O)N3CN(CN(C3)C(=O)CCSC[C@H](NC(=O)[C@@H](CO)NC(=O)[C@H](N)CCCNC(=N)N)C(=O)N[C@@H](Cc3ccc(F)cc3)C(=O)N[C@@H](CCCNC(=N)N)C(=O)N[C@@H](CC(C)C)C(=O)N3CCC[C@H]3C(=O)N2)C(=O)CCSC[C@@H](C(=O)N[C@@H](CCCNC(=N)N)C(N)=O)NC(=O)C[C@H](CCCNC(=N)N)NC1=O` [JS33] (H-[dR][dS]C[Phe(4-F)]RLPCHQL[β3hR]CR-NH2; linker 3-8-13 via TATA; N-terminus and C-terminus assumed) as the compound, how does the half-life at 10 μM (in vitro) read?
A: 144 ± 30 h

Q: With `Cc1cccc(C[C@@H]2NC(=O)[C@@H](NC(=O)[C@@H](N)CCCNC(=N)N)CSCCC(=O)N3CN4CN(C3)C(=O)CCSC[C@H](NC(=O)[C@@H]3CCCN3C(=O)[C@H](CC(C)C)NC(=O)[C@H](CCCNC(=N)N)NC2=O)C(=O)N[C@@H](CCCNC(=N)N)C(=O)N[C@@H](CCC(N)=O)C(=O)N[C@@H](CC(C)C)C(=O)N[C@@H](CCCNC(=N)N)C(=O)N[C@H](C(=O)N[C@@H](CCCNC(=N)N)C(=O)N[C@@H](Cc2c[nH]c3ccccc23)C(N)=O)CSCCC4=O)c1` [peptide 52] as the compound, how does the “improvement of inhibitory activity / affinity” value (human β-FXIIa [1]) read?
A: 2.5 fold
